Measurements published in PMC12226405 (Aging Medicine, 2025).

Key:
lumbar spine (L2–L4) BMD = system: lumbar spine (L2–L4) BMD; design: method as in PMID 31243480; conditions: study of biosimilar approved in Japan; cited from earlier work
femoral neck BMD = system: femoral neck BMD; design: method as in PMID 11346808; conditions: Fracture Prevention Trial; after 2 years of 20 μg daily; cited from earlier work
[1] = design: method as in PMID 31243480; conditions: Fracture Prevention Trial; 20 μg; cited from earlier work
lumbar spine BMD = system: lumbar spine BMD; design: method as in PMID 11346808; conditions: Fracture Prevention Trial; after 2 years of 20 μg daily; cited from earlier work
[2] = system: lumbar spine BMD in postmenopausal women with osteoporosis; test: Percent change in lumbar spine BMD by DXA, phase III study; assay type: in vivo, human; conditions: for Percent change in lumbar spine BMD from baseline at Week 24, LSM ± SE / Percent change in lumbar spine BMD from baseline at Week 48, LSM ± SE: mITT population, LOCF, 20 μg s.c. once daily, DXA
Method: (§1) A multicenter, randomized, active‐controlled, double‐blind, parallel‐group phase III study was conducted between August 2018 and August 2020 at 17 sites in India. The study was conducted as per the principles and requirements of the Declaration of Helsinki (2013), and ICH‐GCP (E6‐R2, Step 4) guidelines along with the local regulatory requirements of Good Clinical Practices for Clinical Research in India (2004), ICMR guidelines for Biomedical Research on Human Subjects (2017) and New Drugs and Clinical Trial Rules, 2019 (CDSCO) and after approvals from respective Institutional Ethics Committees. The study was registered on the Clinical Trial Registry of India (CTRI/2018/05/014254).
(§2) After signing of the informed consent form, the subjects were screened to assess eligibility according to the study selection criteria. Postmenopausal women between the ages of 50–80 years with BMD T‐SCORE less than −2.5 at the lumbar spine or femoral neck were enrolled in the study.
(§3) All participants were provided with daily oral supplementation of 1000 mg of calcium and 500 IU of vitamin D3.
(§4) Medications known to affect bone metabolism, such as bisphosphonates, raloxifene, and denosumab, as well as drugs associated with reduced bone density, including glucocorticoids, aromatase inhibitors, and tamoxifen, were prohibited during the study. Throughout the treatment period, data were collected for primary and secondary endpoints. BMD was evaluated using dual‐energy X‐ray absorptiometry (DXA) as part of the efficacy assessments. Laboratory samples were collected during the treatment phase to support efficacy and safety evaluations, and all laboratory analyses were conducted at a central laboratory.
(§5) The primary endpoint of the study was the percent change in BMD of the lumbar spine and proximal femur, assessed using dual‐energy X‐ray absorptiometry (DXA) from baseline to Weeks 24 and 48. All DXA measurements were analyzed centrally, and the results were not disclosed to individual study centers to ensure unbiased interpretation. Secondary endpoints included the change from baseline in the pharmacodynamic parameter serum P1NP (procollagen type 1 N terminal propeptide), which was assessed at randomization and Weeks 12, 24, and 48. […] Serum biochemistry analyses were performed at baseline and at Weeks 4, 12, 24, and 48.
(§6) The efficacy analysis was performed on all the subjects in mITT (modified intention‐to‐treat) and PP (per protocol) population. Any missing postbaseline data were imputed using the last observation carried forward (LOCF) procedure. For the analysis of change from baseline to Week 12 (for P1NP), Week 24, and Week 48, a regression model with percent change from baseline as the response variable and the stratification variable was used for randomization, and treatment as independent variables was fit to test the mean difference between the two treatments in percent change. Adjusted least square mean (LSM) and the standard error values along with the p value and the 95% confidence interval (CI) of the difference were presented.

[3] = system: serum P1NP (procollagen type 1 N terminal propeptide); test: Change from baseline in serum P1NP (bone turnover marker); assay type: in vivo, human; conditions: mITT population; 20 μg s.c. once daily
Method: as §3, §5, §6

[4] = Pharmacokinetic sub-study, plasma teriparatide on Day 1; assay type: in vivo, human; conditions: Day 1, 20 μg s.c., sampling to 240 min, noncompartmental, n = 15 per arm
Method: Pharmacokinetic (PK) assessments were performed on a subset of subjects who voluntarily consented to participate in an additional PK sub‐study alongside the main study. […] Blood samples for PK analysis were collected at the study site on Day 1 (Visit 2, i.e., the randomization visit) at specified time points: pre‐dose (within 30 min before the first investigational product [IP] administration) and at 5‐, 10‐, 20‐, 30‐, 45‐, 60‐, 90‐, 120‐, 180‐, and 240‐min post‐IP administration.
PK parameters (C max, AUC0–t , and T max) measured in plasma were calculated by noncompartmental methods, using Phoenix software for the PK population on Day 1. Descriptive statistics (number of subjects [n], mean, standard deviation, median, minimum, and maximum [range]) were calculated for all evaluable PK parameters by treatment group for the PK population.

[5] = system: femoral neck BMD in postmenopausal women with osteoporosis; test: Percent change in femoral neck BMD by DXA, phase III study; assay type: in vivo, human; conditions: for percent change in femoral neck BMD from baseline to 48 weeks (LSM ± SE): as given in the abstract, population not given; for percent change in femoral neck BMD from baseline to 48 weeks (LSM ± SE) / Percent change in femoral neck BMD from baseline at Week 24, LSM ± SE / Percent change in femoral neck BMD from baseline at Week 48, LSM ± SE: 20 μg s.c. once daily; for Percent change in femoral neck BMD from baseline at Week 24, LSM ± SE / Percent change in femoral neck BMD from baseline at Week 48, LSM ± SE: mITT population, LOCF, DXA
Method: as §1, §2, §3, §4, §5, §6

[6] = biosimilar versus reference teriparatide, mITT
[7] = versus reference teriparatide, Week 24 and Week 48, mITT
[8] = listed as Proposed biosimilar teriparatide (T)
[9] = listed as Reference teriparatide (R)

Substance | percent change from baseline to 52 weeks in lumbar spine (L2–L4) BMD (mean ± SE) (lumbar spine (L2–L4) BMD) | Percent change in lumbar spine BMD from baseline at Week 24, LSM ± SE [2] | Percent change in lumbar spine BMD from baseline at Week 48, LSM ± SE [2] | Serum P1NP concentration, change from baseline to Week 12 (LSM ± SE) [3] | Serum P1NP concentration, change from baseline to Week 24 (LSM ± SE) [3] | Serum P1NP concentration, change from baseline to Week 48 (LSM ± SE) [3] | percent change in femoral neck BMD from baseline to 48 weeks (LSM ± SE) [5] | Percent change in femoral neck BMD from baseline at Week 24, LSM ± SE [5] | Percent change in femoral neck BMD from baseline at Week 48, LSM ± SE [5] | other results
RGB‐10: proposed biosimilar teriparatide approved in Japan | 8.94% ± 6.19% | – | – | – | – | – | – | – | – | –
teriparatide | – | – | – | – | – | – | – | – | – | percentage increase in BMD at the femoral neck (mean ± SE) (femoral neck BMD): 2.8 ± 5.7%; TEAE dizziness [1]: 9%; TEAE leg cramps [1]: 3%; percentage increase in BMD at the lumbar spine (mean ± SE) (lumbar spine BMD): 9.7 ± 7.4%
teriparatide [Biosimilar teriparatide] | – | 7.16 ± 0.82% | 8.46 ± 0.94% | 24.38 ± 4.44 | 33.05 ± 7.00 | 48.52 ± 7.24 | 3.94% ± 0.83 | 3.37 ± 0.78% | 4.03 ± 0.96 (p = 0.003) % | estimated between-group difference (95% CI), lumbar spine BMD percent change to 48 weeks ([2]; abstract, biosimilar versus reference, noninferiority margin −2.43%): −0.56%; LSM difference (95% CI), lumbar spine BMD percent change at Week 24 [2, 6]: −0.410 (−3.191, 2.372); LSM difference (95% CI), lumbar spine BMD percent change at Week 48 [2, 6]: −0.754 (−4.011, 2.502); noninferiority in lumbar spine BMD percentage change [2, 7]: noninferiority; AUC(0–t), geometric least squares mean [4, 8]: 6132.45 min; C max, geometric least squares mean [4, 8]: 0.10879 ng/mL; estimated between-group difference (95% CI), femoral neck BMD percent change to 48 weeks ([5]; abstract, biosimilar versus reference, noninferiority margin −1.44%): 1.44%; LSM difference (95% CI), femoral neck BMD percent change at Week 24 [5, 6]: 1.576 (−1.048, 4.199); LSM difference (95% CI), femoral neck BMD percent change at Week 48 [5, 6]: 0.173 (−3.146, 3.493); noninferiority in femoral neck BMD percentage change [5, 7]: noninferiority
teriparatide [Reference teriparatide, reference compound] | 9.65% ± 6.22% | 7.57 ± 1.13% | 9.22 ± 1.34% | 21.95 ± 6.02 | 51.07 ± 9.63 | 34.30 ± 9.98 | 2.50% ± 1.20 | 1.79 ± 1.07% | 3.86 ± 1.24 (p = 0.024) % | AUC(0–t), geometric least squares mean [4, 9]: 6387.59 min; C max, geometric least squares mean [4, 9]: 0.10589 ng/mL
